Eleven compounds from PubChem BioAssay (NCI) can be followed below.

Test systems include M14 melanoma; SK-MEL-2 melanoma; MDA-MB-435; 786-0 renal; EKVX NSCLC; LOX IMVI melanoma; TK-10 renal; NCI-H23 lung; OVCAR-5 ovarian; CCRF-CEM leukemia.
Common to all, as to assay: growth of human tumour cells (NCI), 48 h

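Results reflect a 48-hour exposure of cells in 96-well plates to compound at five concentrations. Abbreviation: GI50, concentration required for 50% inhibition of growth. TGI: total growth inhibition.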

`CN(C)CCNC(=O)c1ccc2c(c1)oc1cc3ccccc3c(=O)n12`: the GI50 was 18.6 µM in the experiment with M14 melanoma; 28.7 µM in the experiment on SK-MEL-2 melanoma; 15.1 µM in the experiment on MDA-MB-435; 18.2 µM in the experiment on 786-0 renal; 18.1 µM in the experiment on EKVX NSCLC; 1.91 µM in the experiment on LOX IMVI melanoma. Moreover, the GI50 in the experiment with TK-10 renal is 12.9 µM; in the experiment on NCI-H23 lung, 31.8 µM. Further, the TGI in the experiment with M14 melanoma came out at 32.6 µM; with SK-MEL-2 melanoma, 50.5 µM; in the experiment on MDA-MB-435, 32.7 µM; in the experiment on 786-0 renal it was 33.1 µM; with EKVX NSCLC, 36.6 µM; in the experiment with LOX IMVI melanoma it was 11 µM. The TGI was 31.4 µM with TK-10 renal and over 100 µM in the experiment on NCI-H23 lung.
For `Cn1cc(-c2ccc3c4ccccc4n(C)c3c2)c2ccccc21`, the TGI in the experiment on M14 melanoma, in the experiment with SK-MEL-2 melanoma, with 786-0 renal, in the experiment with EKVX NSCLC, with LOX IMVI melanoma and in the experiment on OVCAR-5 ovarian was over 100 µM throughout. The TGI with TK-10 renal, in the experiment with NCI-H23 lung and in the experiment with CCRF-CEM leukemia was over 100 µM in each case.
In the case of `Cc1cc(NS(=O)(=O)c2ccc(NC(=O)c3ccc(Cl)c4c(Nc5ccc(S(=O)(=O)Nc6cc(C)on6)cc5)c5ccccc5nc34)cc2)no1`, the TGI with M14 melanoma amounted to 49.4 µM; in the experiment with SK-MEL-2 melanoma, 50.5 µM; with 786-0 renal, 32.2 µM; in the experiment with EKVX NSCLC, 64.9 µM; in the experiment with LOX IMVI melanoma it was 41.6 µM; with OVCAR-5 ovarian, 38.6 µM. For the same compound, the TGI was found to be 71.1 µM in the experiment on TK-10 renal and 51.8 µM in the experiment with CCRF-CEM leukemia.
For `CN(c1cccc(C(=O)O)c1)c1cc(O/N=[N+](\[O-])N(C)C)c([N+](=O)[O-])cc1[N+](=O)[O-]`, the GI50 was over 100 µM in the experiment on SK-MEL-2 melanoma; over 100 µM in the experiment with MDA-MB-435; over 100 µM with 786-0 renal; over 100 µM in the experiment on EKVX NSCLC; 47.6 µM in the experiment on LOX IMVI melanoma; over 100 µM in the experiment on OVCAR-5 ovarian. Further, the GI50 in the experiment on TK-10 renal and in the experiment on NCI-H23 lung was over 100 µM throughout. The TGI in the experiment on SK-MEL-2 melanoma, with MDA-MB-435, with 786-0 renal, in the experiment with EKVX NSCLC, with LOX IMVI melanoma and with OVCAR-5 ovarian was over 100 µM in each case. The TGI in the experiment with TK-10 renal and with NCI-H23 lung was over 100 µM throughout.
`CCCCC[C@@H]1CCCC2NC(CCCCCO[Si](c3ccccc3)(c3ccccc3)C(C)(C)C)CCC21` (stereo partly drawn): the TGI in the experiment with M14 melanoma is 27.3 µM; in the experiment on SK-MEL-2 melanoma, 31 µM; in the experiment with 786-0 renal, 33.2 µM; in the experiment with EKVX NSCLC it was 34.3 µM; in the experiment on LOX IMVI melanoma, 28.1 µM; in the experiment with OVCAR-5 ovarian, 34.8 µM. Moreover, the TGI amounted to 34.8 µM in the experiment with TK-10 renal, 31.7 µM in the experiment on NCI-H23 lung and 26.7 µM in the experiment with CCRF-CEM leukemia.
Take `CNC(=O)[C@H](Cc1c[nH]c2ccccc12)NC(=O)[C@@H](CC(=O)NO)CC(C)C`: the GI50 in the experiment with M14 melanoma, in the experiment with SK-MEL-2 melanoma, in the experiment with MDA-MB-435, with 786-0 renal, with EKVX NSCLC and in the experiment on LOX IMVI melanoma was over 25 µM each time. Also, the GI50 in the experiment on OVCAR-5 ovarian, in the experiment on TK-10 renal and in the experiment on NCI-H23 lung was over 25 µM throughout. Besides, the TGI in the experiment on M14 melanoma, in the experiment on SK-MEL-2 melanoma, with MDA-MB-435, with 786-0 renal, in the experiment on EKVX NSCLC and in the experiment on LOX IMVI melanoma was over 25 µM throughout. Besides, the TGI in the experiment with OVCAR-5 ovarian, in the experiment with TK-10 renal and with NCI-H23 lung was over 25 µM each time.
Take `CC1(Cl)C(=O)NC(=O)N([C@H]2C[C@H](O)[C@@H](CO)O2)C1N=[N+]=[N-]` (stereo partly drawn): the TGI in the experiment on M14 melanoma, in the experiment on SK-MEL-2 melanoma, in the experiment with 786-0 renal, with EKVX NSCLC, in the experiment with LOX IMVI melanoma and in the experiment with OVCAR-5 ovarian was over 100 µM in each case. In addition, the TGI with TK-10 renal, in the experiment on NCI-H23 lung and with CCRF-CEM leukemia was over 100 µM throughout.
For `CCOC(=O)c1ccc(N=Cc2ccc(N(CCC#N)S(=O)(=O)c3ccccc3)cc2C)cc1`, the TGI in the experiment on M14 melanoma, in the experiment on SK-MEL-2 melanoma, with 786-0 renal, in the experiment with EKVX NSCLC, in the experiment with LOX IMVI melanoma and with OVCAR-5 ovarian was over 100 µM each time. In addition, the TGI with TK-10 renal, with NCI-H23 lung and in the experiment on CCRF-CEM leukemia was over 100 µM each time.
In the case of `CC(=O)/C=C1\CC(=O)N(C)c2ccccc2N1`, the TGI with M14 melanoma, with SK-MEL-2 melanoma, in the experiment on 786-0 renal, in the experiment with EKVX NSCLC, in the experiment with LOX IMVI melanoma and in the experiment with OVCAR-5 ovarian was over 100 µM each time. The TGI in the experiment with TK-10 renal, with NCI-H23 lung and in the experiment with CCRF-CEM leukemia was over 100 µM throughout.
Regarding `O=C1c2ccccc2C(=O)N1c1ccc(Cc2ccc(N3C(=O)c4ccccc4C3=O)cc2)cc1`, the TGI in the experiment with M14 melanoma, with SK-MEL-2 melanoma, in the experiment with MDA-MB-435, in the experiment on 786-0 renal, in the experiment on EKVX NSCLC and in the experiment with LOX IMVI melanoma was over 100 µM each time. Also, the TGI in the experiment on OVCAR-5 ovarian, in the experiment on TK-10 renal and with NCI-H23 lung was over 100 µM each time.
As to `COc1ccc(-c2nc(NC(=O)CS(=O)(=O)c3ccc(F)cc3)sc2C)cc1`, the GI50 in the experiment with M14 melanoma was 19.1 µM; with SK-MEL-2 melanoma it was 15.2 µM; in the experiment on MDA-MB-435 it was 3.29 µM; in the experiment with 786-0 renal, 23 µM; with LOX IMVI melanoma it was 19.2 µM; in the experiment on OVCAR-5 ovarian, 36 µM. Besides, the GI50 in the experiment on TK-10 renal was 28.9 µM; with NCI-H23 lung, 27.9 µM. Further, the TGI with M14 melanoma was 55.7 µM; with SK-MEL-2 melanoma it was 34.1 µM; in the experiment with MDA-MB-435 it was 12.1 µM; with 786-0 renal it was 61.3 µM; in the experiment on LOX IMVI melanoma it was 42.6 µM; in the experiment on OVCAR-5 ovarian, over 100 µM. The results for the TGI in the experiment on TK-10 renal and with NCI-H23 lung were 81.2 µM and over 100 µM, respectively.
